The results in this text go back to patent US20040028684A1, “Cancer diagnosis and assays for screening anti-cancer agents” (priority 2000, published 2004).

The assay deals with RMP1. The experiment in a line: Rapamycin sensitive signaling on human RMP1: immunoblot of RMP in insulin-induced HEK293 cells. The class given is cell-based. The conditions noted are these: serum-deprived HEK293 cells, 50 nM insulin, after 1 h induction, maintained throughout 8 h, no rapamycin. Here is the method: Human Embryonic kidney (HEK293) cells are grown in DMEM+10% FCS. Exponentially growing HEK 293 cells are deprived of serum overnight, and then induced with 50 nM insulin in the presence or absence of 20 nM rapamycin. Protein extracts were prepared from cells harvested at 0 h, 1 h, 2 h, 4 h and 8 h after insulin induction. The cell extracts were subjected to SDS-polyacrylamide gel electrophoresis and the resulting gels were analyzed by immuno-blotting using a rabbit polyclonal anti-human RMP antibody. Antibodies specific for RMP are easily prepared using standard laboratory practices. A secondary antibody specific for rabbit antibodies, labelled was used to visualize RMP on the immunoblot using routine procedures.
In the presence of insulin and amino acids (in the culture medium in this example), RMP is present as a slower migrating form, indicating a phosphorylated form. Under these conditions, the cells continue to synthesize […]. With the addition of rapamycin, RMP is present as a fast migrating form and blocks the synthesis of […]
On the technique in general: In western blotting, separated proteins are transferred to a membrane and probed.

insulin: the “slower migrating form of RMP” value was “induced”.
